According to patent publication US20100076015A1, “Aminopyridine Derivatives” (VANTIA LIMITED, priority 2008, published 2010):

What follows are compounds tested against T1, Human KLK1 (Homo sapiens, UniProt P06870) (assay: Determination of the IC50 for KLK1 (fluorogenic substrate H-DVal-Leu-Arg-AFC)). Conditions: 37° C.
T1 construct: purchased Callbiochem (Calbiochem)
Format: biochemical
Summary of the method: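 IC50 values reflect residual human KLK1 activity, read as initial rate from optical absorbance change at 410 nm. Incubations ran at 37° C with H-DVal-Leu-Arg-AFC as substrate across a compound concentration series.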

T1 sequence (P06870 25-262): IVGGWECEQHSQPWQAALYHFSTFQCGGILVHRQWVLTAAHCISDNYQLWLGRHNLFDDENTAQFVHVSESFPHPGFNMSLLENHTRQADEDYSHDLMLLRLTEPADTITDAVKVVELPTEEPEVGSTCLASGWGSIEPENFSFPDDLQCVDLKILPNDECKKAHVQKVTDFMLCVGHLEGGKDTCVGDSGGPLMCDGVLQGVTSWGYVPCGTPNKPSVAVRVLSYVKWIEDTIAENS

SMILES | IC50
CN(CC(=O)N[C@@H](Cc1ccc(F)c(F)c1)C(=O)NCc1ccc(N)nc1)Cc1ccc(Cl)cc1 [Example 163, (S)—N-(6-Amino-pyridin-3-ylmethyl)-2-{2-[(4-chloro-benzyl)-methyl-amino]-acetylamino}-3-(3,4-difluoro-phenyl)-propionamide] | 56.5 nM
CN(CC(=O)N[C@@H](Cc1ccc(F)c(F)c1)C(=O)NCc1ccc(N)nc1)CC1CCCCC1 [Example 169, (S)—N-(6-Amino-pyridin-3-ylmethyl)-2-[2-(cyclohexylmethyl-methyl-amino)-acetylamino]-3-(3,4-difluoro-phenyl)-propionamide] | 334 nM
Nc1ccc(CNC(=O)[C@H](Cc2ccc(F)c(F)c2)NC(=O)CN2CCOCC2)cn1 [Example 171, (S)—N-(6-Amino-pyridin-3-ylmethyl)-3-(3,4-difluoro-phenyl)-2-(2-morpholin-4-yl-acetylamino)-propionamide] | 1.3 nM
Nc1ccc(CNC(=O)[C@H](Cc2ccc(F)c(F)c2)NC(=O)CN2CCc3ccccc3C2)cn1 [Example 172, (S)—N-(6-Amino-pyridin-3-ylmethyl)-3-(3,4-difluoro-phenyl)-2-(2-3,4-dihydro-1H-isoquinolin-2-yl-acetylamino)-propionamide] | 12.7 nM
Nc1ccc(CNC(=O)[C@H](Cc2ccc(F)c(F)c2)NC(=O)CN2CCCc3ccccc32)cn1 [Example 173, (S)—N-(6-Amino-pyridin-3-ylmethyl)-3-(3,4-difluoro-phenyl)-2-(2-3,4-dihydro-2H-quinolin-1-yl-acetylamino)-propionamide] | 78.3 nM

More lines, in order of falling IC50, values ahead:

IC50 | SMILES
726 nM | COc1ccc(CN(C)CC(=O)N[C@@H](Cc2ccc(F)c(F)c2)C(=O)NCc2ccc(N)nc2)cc1 [Example 166, (S)—N-(6-Amino-pyridin-3-ylmethyl)-3-(3,4-difluoro-phenyl)-2-{2-[(4-methoxy-benzyl)-methyl-amino]-acetylamino}-propionamide]
345 nM | CN(CC(=O)N[C@@H](Cc1ccc(F)c(F)c1)C(=O)NCc1ccc(N)nc1)Cc1cccc(Cl)c1 [Example 164, (S)—N-(6-Amino-pyridin-3-ylmethyl)-2-{2-[(3-chloro-benzyl)-methyl-amino]-acetylamino}-3-(3,4-difluoro-phenyl)-propionamide]
291 nM | CC(C)CN(C)CC(=O)N[C@@H](Cc1ccc(F)c(F)c1)C(=O)NCc1ccc(N)nc1 [Example 168, (S)—N-(6-Amino-pyridin-3-ylmethyl)-3-(3,4-difluoro-phenyl)-2-[2-(isobutyl-methyl-amino)-acetylamino]-propionamide]
258 nM | CCCCN(C)CC(=O)N[C@@H](Cc1ccc(F)c(F)c1)C(=O)NCc1ccc(N)nc1 [Example 167, (S)—N-(6-Amino-pyridin-3-ylmethyl)-2-[2-(butyl-methyl-amino)-acetylamino]-3-(3,4-difluoro-phenyl)-propionamide]
90 nM | CN(CC(=O)N[C@@H](Cc1ccc(F)c(F)c1)C(=O)NCc1ccc(N)nc1)c1ccccc1 [Example 174, (S)—N-(6-Amino-pyridin-3-ylmethyl)-3-(3,4-difluoro-phenyl)-2-[2-(methyl-phenyl-amino)-acetylamino]-propionamide]
83.5 nM | CN(CC(=O)N[C@@H](Cc1ccc(F)c(F)c1)C(=O)NCc1ccc(N)nc1)Cc1ccccc1Cl [Example 165, (S)—N-(6-Amino-pyridin-3-ylmethyl)-2-{2-[(2-chloro-benzyl)-methyl-amino]-acetylamino}-3-(3,4-difluoro-phenyl)-propionamide]
16.6 nM | Nc1ccc(CNC(=O)[C@H](Cc2ccc(F)c(F)c2)NC(=O)CN2CCCCC2)cn1 [Example 170, (S)—N-(6-Amino-pyridin-3-ylmethyl)-3-(3,4-difluoro-phenyl)-2-(2-piperidin-1-yl-acetylamino)-propionamide]
2 nM | CC(C)N(C)[C@H](C)C(=O)N[C@@H](Cc1ccc(F)c(F)c1)C(=O)NCc1ccc(N)nc1 [Example 175, (R)—N-[(S)-1-[(6-Amino-pyridin-3-ylmethyl)-carbamoyl]-2-(3,4-difluoro-phenyl)-ethyl]-2-(isopropyl-methyl-amino)-propionamide]
